Assay results: patent publication US5977326A, “Process for making morphine-6-glucuronide or substituted morphine-6-glucuronide” (priority 1991, dated 1999)

Key:
[1] = In vivo antinociceptive activity (A.U.C.), animal pain model; conditions: area under the time effect curve
Source text: *A.U.C. = area under the time effect curve.

[2] = versus morphine; R. Osborne et al., The Lancet, 1988, 828; cited from earlier work
[3] = target: μ1 Receptor (opioid analgesia receptor) (Homo sapiens, UniProt P35372); type: binding
Sequence of μ1 Receptor (opioid analgesia receptor) (P35372 whole entry): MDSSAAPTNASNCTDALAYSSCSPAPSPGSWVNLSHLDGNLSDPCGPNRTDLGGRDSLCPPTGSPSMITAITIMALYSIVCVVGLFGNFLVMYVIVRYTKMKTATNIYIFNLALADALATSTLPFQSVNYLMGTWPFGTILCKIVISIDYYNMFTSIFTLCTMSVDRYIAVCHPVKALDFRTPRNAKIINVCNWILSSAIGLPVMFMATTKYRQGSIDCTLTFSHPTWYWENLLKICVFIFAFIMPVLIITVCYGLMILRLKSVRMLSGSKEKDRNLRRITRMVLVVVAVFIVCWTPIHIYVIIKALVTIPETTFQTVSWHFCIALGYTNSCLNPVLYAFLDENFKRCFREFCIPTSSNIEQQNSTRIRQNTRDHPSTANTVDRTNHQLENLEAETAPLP
Source text: compound which displaces 50% of a labelled competitive ligand from […]

Structure (SMILES) | In vivo antinociceptive (A.U.C.) ([1]; 1 mg) | In vivo antinociceptive (A.U.C.) ([1]; 2 mg) | In vivo antinociceptive (A.U.C.) ([1]; 4 mg) | analgesic power compared with morphine [2] | In vivo antinociceptive (A.U.C.) ([1]; 8 mg) | binding affinity to the receptor (μ1), in words [3]
CN1CC[C@]23c4c5ccc(O)c4O[C@H]2[C@@H](O)C=C[C@H]3[C@H]1C5 [Compound 1, morphine] | 197.3 | 241.4 | 738.3 | – | – | –
CN1CC[C@]23c4c5ccc(O)c4O[C@H]2[C@@H](O[C@@H]2O[C@H](C(=O)O)[C@@H](O)[C@H](O)[C@H]2O)C=C[C@H]3[C@H]1C5 [Compound 2, morphine-6-glucuronide] | – | 209.6 | 618.1 | more powerful analgesic than morphine itself | – | –
CN1CC[C@]23c4c5ccc(O)c4O[C@H]2[C@@H](O[C@@H]2OC(C(=O)O)=C[C@H](O)[C@H]2O)C=C[C@H]3[C@H]1C5 [Compound 3] | – | 205.0 | 168.5 | – | 175.5 | –
CN1CC[C@]23c4c5ccc(O)c4O[C@H]2[C@@H](O[C@@H]2O[C@H](C(=O)O)[C@@H](O)[C@H]2O)C=C[C@H]3[C@H]1C5 [Compound 4] | – | – | 238.1 | – | 68.3 | –
O=C(O)[C@H]1O[C@@H](O[C@H]2C=C[C@H]3[C@H]4Cc5ccc(O)c6c5[C@@]3(CCN4)[C@H]2O6)[C@H](O)[C@@H](O)[C@@H]1O [Compound 5] | – | 65.6 | 564.8 | – | 837.9 | –
CN1CC[C@]23c4c5ccc(O)c4O[C@H]2[C@@H](O[C@@H]2O[C@H](C(=O)O)[C@@H](O)[C@H](O)[C@H]2O)CC[C@H]3[C@H]1C5 [Compound 6, 1-(7,8-dihydromorphin-6-yl)-β-D-glucopyranosiduronic acid] | 277.4 | 720.4 | 753.3 | – | – | greatest binding affinity to the relevant receptor (μ1)
